The values that follow come from ChEMBL document CHEMBL3045312, “Projuvenoids: synthesis and biological evaluation of sulfenylated, sulfinylated, and sulfonylated carbamates” (Arch Insect Biochem Physiol, 1996).

For data set [1], the system named is Sitophilus oryzae. The data set is described as follows: Juvenile hormone mimicking activity against adult Sitophilus oryzae (rice weevil) infested wheat kernels assessed as suppression of progeny development at 1 ppm applied through diet for 21 days measured after 9 weeks. The data set is classed as functional, organism-based.
Data set [2] relates to Pieris brassicae. As to the kind of experiment: Ratio of fenoxycarb ID50 to compound ID50 for fifth-instar larval stage of Pieris brassicae. The data set is classed as functional.
In data set [3] the test system is Pieris brassicae. As to the kind of experiment: Juvenile hormone mimicking activity against fifth-instar larval stage of Pieris brassicae reared on cabbage plants assessed as morphogenetic changes measured per larvae applied topically to dorsal surface of larvae measured post pupal ecdysis. The data set is classed as functional.
Data set [4] has as its system Bemisia tabaci. As to the kind of experiment: Juvenile hormone mimicking activity against Bemisia tabaci (sweet potato whitefly) infested cotton assessed as suppression of adult emergence at 200 g/ha applied as emulsifiable concentrate through spray measured on day 12 under field conditions (reference value: 89%). The class given is functional.
For data set [5], the system named is Bemisia tabaci. The data set is described as follows: Juvenile hormone mimicking activity against Bemisia tabaci (sweet potato whitefly) infested cotton assessed as suppression of adult emergence at 100 g/ha applied as emulsifiable concentrate through spray measured on day 12 under field conditions (reference value: 89%). The class given is functional.
The subject of data set [6] is Bemisia tabaci. As to the kind of experiment: Juvenile hormone mimicking activity against Bemisia tabaci (sweet potato whitefly) infested cotton assessed as suppression of adult emergence at 50 g/ha applied as emulsifiable concentrate through spray measured on day 12 under field conditions (reference value: 89%). The class given is functional.
The subject of data set [7] is Bemisia tabaci. As to the kind of experiment: Juvenile hormone mimicking activity against Bemisia tabaci (sweet potato whitefly) infested cotton assessed as suppression of nymph emergence at 200 g/ha applied as emulsifiable concentrate through spray measured on day 12 under field conditions (reference value: 92%). The data set is classed as functional.
The test system of data set [8] is Bemisia tabaci. As to the kind of experiment: Juvenile hormone mimicking activity against Bemisia tabaci (sweet potato whitefly) infested cotton assessed as suppression of nymph emergence at 100 g/ha applied as emulsifiable concentrate through spray measured on day 12 under field conditions (reference value: 92%). The class given is functional.
The test system of data set [9] is Bemisia tabaci. As to the kind of experiment: Juvenile hormone mimicking activity against Bemisia tabaci (sweet potato whitefly) infested cotton assessed as suppression of nymph emergence at 50 g/ha applied as emulsifiable concentrate through spray measured on day 12 under field conditions (reference value: 92%). The data set is classed as functional.
Data set [10] is described as follows: Lipophilicity, log P of the compound. The data set is classed as physicochemical. The conditions noted are these: octanol/water.
Data set [11] deals with Sitophilus oryzae. The data set is described as follows: Juvenile hormone mimicking activity against adult Sitophilus oryzae (rice weevil) infested wheat kernels assessed as suppression of progeny development at 1 to 100 ppm applied through diet for 21 days measured after 9 weeks. The data set is classed as functional, organism-based.
The subject of data set [12] is Bemisia tabaci. The data set is described as follows: Juvenile hormone mimicking activity against Bemisia tabaci (sweet potato whitefly) infested cotton assessed as suppression of adult emergence at 400 g/ha applied as wettable powder through spray measured on day 12 under field conditions (reference value: 89%). The class given is functional.
For data set [13], the system named is Bemisia tabaci. As to the kind of experiment: Juvenile hormone mimicking activity against Bemisia tabaci (sweet potato whitefly) infested cotton assessed as suppression of adult emergence at 200 g/ha applied as wettable powder through spray measured on day 12 under field conditions (reference value: 89%). The class given is functional.
For data set [14], the system named is Bemisia tabaci. As to the kind of experiment: Juvenile hormone mimicking activity against Bemisia tabaci (sweet potato whitefly) infested cotton assessed as suppression of adult emergence at 100 g/ha applied as wettable powder through spray measured on day 12 under field conditions (reference value: 89%). The class given is functional.
Data set [15] deals with Bemisia tabaci. As to the kind of experiment: Juvenile hormone mimicking activity against Bemisia tabaci (sweet potato whitefly) infested cotton assessed as suppression of nymph emergence at 400 g/ha applied as wettable powder through spray measured on day 12 under field conditions (reference value: 92%). The data set is classed as functional.
In data set [16] the test system is Bemisia tabaci. The data set is described as follows: Juvenile hormone mimicking activity against Bemisia tabaci (sweet potato whitefly) infested cotton assessed as suppression of nymph emergence at 200 g/ha applied as wettable powder through spray measured on day 12 under field conditions (reference value: 92%). The class given is functional.
In data set [17] the test system is Bemisia tabaci. As to the kind of experiment: Juvenile hormone mimicking activity against Bemisia tabaci (sweet potato whitefly) infested cotton assessed as suppression of nymph emergence at 100 g/ha applied as wettable powder through spray measured on day 12 under field conditions (reference value: 92%). The data set is classed as functional.

Activity calls are given as the source filed them. No cut-off for these calls is given here. Bounds are passed on as bounds.

Regarding `CCCCCCCCCCCCOC(=O)N(CCCC)SN(CCOc1ccc(Oc2ccccc2)cc1)C(=O)OCC`, in the data set on Sitophilus oryzae [1], the outcome was Active. The Ratio in the data set with Pieris brassicae [2] was found to be 6. In addition, the ID50 in the data set with Pieris brassicae [3] is 2.8 ng.
In the case of `CC(C)OC(=O)N(CCOc1ccc(Oc2ccccc2)cc1)[S+]([O-])N(CCOc1ccc(Oc2ccccc2)cc1)C(=O)OC(C)C`, the ID50 with Pieris brassicae [3] came to 20 ng.
As for `CCOC(=O)N(CCOc1ccc(Oc2ccccc2)cc1)[S+]([O-])N(CCOc1ccc(Oc2ccccc2)cc1)C(=O)OCC`, the Activity came to 19% in the data set on Bemisia tabaci [4]; 31% in the data set on Bemisia tabaci [5]; 36% in the data set on Bemisia tabaci [6]; 16% with Bemisia tabaci [7]; 33% in the data set with Bemisia tabaci [8]; 47% in the data set with Bemisia tabaci [9]. In addition, the outcome with Sitophilus oryzae [1] was Active. For the same molecule, the ID50 in the data set on Pieris brassicae [3] is 2.2 ng.
Turning to `CCOC(=O)NCCOc1ccc(Oc2ccc(Cl)cc2)cc1`, in the data set with Pieris brassicae [3], the ID50 came out at 22 ng.
Same read-out and setting: the value for `CCOC(=O)N(CCOc1ccc(Oc2ccc(Cl)cc2)cc1)[S+]([O-])N(CCOc1ccc(Oc2ccc(Cl)cc2)cc1)C(=O)OCC` was 9 ng; that for `CC(C)OC(=O)NCCOc1ccc(Oc2ccccc2)cc1` was 24 ng.
Regarding `CCOC(=O)N(CCOc1ccc(Oc2ccccc2)cc1)SN(CCOc1ccc(Oc2ccccc2)cc1)C(=O)OCC`, the result with Sitophilus oryzae [1] was Active. Besides, the ID50 in the data set on Pieris brassicae [3] was 2.8 ng.
As for `COC(C)(C)CCC[C@H](C)C/C=C/C(C)=C/C(=O)OC(C)C` [METHOPRENE], in [10], the logP – broadly, a log measure of how a compound divides between an organic and an aqueous phase – came to 5.21. In addition, the result in the data set with Sitophilus oryzae [11] was Active. In the data set with Pieris brassicae [3], the ID50 is recorded as 60 ng.
Consider `CCOC(=O)N(CCOc1ccc(Oc2ccccc2)cc1)S(=O)(=O)N(CCOc1ccc(Oc2ccccc2)cc1)C(=O)OCC`, for which the ID50 in the data set on Pieris brassicae [3] was more than 100 ng.
With `CCCCCCCCCCCCCCCCCN(SN(CCOc1ccc(Oc2ccccc2)cc1)C(=O)OCC)C(=O)OCc1ccccc1`, in the data set with Sitophilus oryzae [1], the outcome was Active. Moreover, the ID50 with Pieris brassicae [3] is listed as 6.4 ng.
For the molecule `CCCCCCCCOC(=O)N(C)SN(CCOc1ccc(Oc2ccccc2)cc1)C(=O)OCC`, the Ratio in the data set on Pieris brassicae [2] was 6. Further, the ID50 with Pieris brassicae [3] is 3.4 ng.
Take `CC(C)OC(=O)N(CCOc1ccc(Oc2ccccc2)cc1)SN(CCOc1ccc(Oc2ccccc2)cc1)C(=O)OC(C)C`: the ID50 in the data set with Pieris brassicae [3] stood at 22 ng.
For the molecule `CCOC(=O)N(CCOc1ccc(Oc2ccc(Cl)cc2)cc1)SN(CCOc1ccc(Oc2ccc(Cl)cc2)cc1)C(=O)OCC`, the ID50 with Pieris brassicae [3] is on record as 26 ng.
Turning to `CCOC(=O)NCCOc1ccc(Oc2ccccc2)cc1` [PHENOXYCARB], the Activity in the data set with Bemisia tabaci [12] came out at 20%; in the data set on Bemisia tabaci [13], 29%; in the data set on Bemisia tabaci [14], 43%; in the data set with Bemisia tabaci [15], 21%; in the data set on Bemisia tabaci [16], 34%; in the data set on Bemisia tabaci [17], 41%. Moreover, the logP in [10] is 4.07. Also, the result in the data set with Sitophilus oryzae [1] was Active. In addition, the ID50 with Pieris brassicae [3] was found to be 21 ng.
Consider `CCOC(=O)CC(SP(=S)(OC)OC)C(=O)OCC` (configuration not stated), for which the result in the data set on Sitophilus oryzae [11] was Active.
